Results taken from ChEMBL document CHEMBL4002566, “S-substituted 3,5-dinitrophenyl 1,3,4-oxadiazole-2-thiols and tetrazole-5-thiols as highly efficient antitubercular agents” (Eur J Med Chem, 2017).
Converted amounts (≈) assume the structure as drawn.

Tests used:
Assay type in all cases: functional
[1] = system: Mycobacterium tuberculosis; experiment: Antimycobacterial activity against Mycobacterium tuberculosis CNCTC My 331/88 after 14 days by micromethod; conditions: CNCTC My 331/88, 336 h
Mycobacterium kansasii [2] = experiment: Antimycobacterial activity against Mycobacterium kansasii 6509/96 clinical isolate after 7 days by micromethod; conditions: 6509/96, 168 h
Mycobacterium kansasii [3] = experiment: Antimycobacterial activity against Mycobacterium kansasii 6509/96 clinical isolate after 21 days by micromethod; conditions: 6509/96, 504 h
Mycobacterium avium [4] = experiment: Antimycobacterial activity against Mycobacterium avium CNCTC My 330/88 after 21 days by micromethod; conditions: CNCTC My 330/88, 504 h
[5] = system: Mycobacterium tuberculosis; experiment: Antimycobacterial activity against Mycobacterium tuberculosis CNCTC My 331/88 after 21 days by micromethod; conditions: CNCTC My 331/88, 504 h
Mycobacterium kansasii [6] = experiment: Antimycobacterial activity against Mycobacterium kansasii CNCTC My 235/80 after 7 days by micromethod; conditions: CNCTC My 235/80, 168 h
Mycobacterium kansasii [7] = experiment: Antimycobacterial activity against Mycobacterium kansasii CNCTC My 235/80 after 14 days by micromethod; conditions: CNCTC My 235/80, 336 h
Mycobacterium kansasii [8] = experiment: Antimycobacterial activity against Mycobacterium kansasii 6509/96 clinical isolate after 14 days by micromethod; conditions: 6509/96, 336 h
Mycobacterium avium [9] = experiment: Antimycobacterial activity against Mycobacterium avium CNCTC My 330/88 after 14 days by micromethod; conditions: CNCTC My 330/88, 336 h
Mycobacterium kansasii [10] = experiment: Antimycobacterial activity against Mycobacterium kansasii CNCTC My 235/80 after 21 days by micromethod; conditions: CNCTC My 235/80, 504 h

| Structure (SMILES) | MIC [1] [µM] | MIC (Mycobacterium kansasii [2]) [µM] | MIC (Mycobacterium kansasii [3]) [µM] | MIC (Mycobacterium avium [4]) [µM] | MIC [5] [µM] | MIC (Mycobacterium kansasii [6]) [µM] | MIC (Mycobacterium kansasii [7]) [µM] | MIC (Mycobacterium kansasii [8]) [µM] | MIC (Mycobacterium avium [9]) [µM] | MIC (Mycobacterium kansasii [10]) [µM] |
| --- | --- | --- | --- | --- | --- | --- | --- | --- | --- | --- |
| COc1ccc(CSc2nnc(-c3cc(NC(C)=O)cc([N+](=O)[O-])c3)o2)cc1 | > 1000 | > 1000 | > 1000 | > 500 | > 1000 | > 1000 | > 1000 | > 1000 | > 500 | > 1000 |
| O=[N+]([O-])c1cc(-c2nnc(SCc3ccc(Cl)cc3)o2)cc(C(F)(F)F)c1 | 0.5 (≈ 0.208 µg/mL) | 1 (≈ 0.416 µg/mL) | 1 (≈ 0.416 µg/mL) | > 250 | 0.5 (≈ 0.208 µg/mL) | 1 (≈ 0.416 µg/mL) | 1 (≈ 0.416 µg/mL) | 1 (≈ 0.416 µg/mL) | > 250 | 1 (≈ 0.416 µg/mL) |
| CC(=O)Nc1cc(-c2nnc(SCc3ccc(Cl)cc3)o2)cc([N+](=O)[O-])c1 | 250 (≈ 101 µg/mL) | > 1000 | > 1000 | > 1000 | 250 (≈ 101 µg/mL) | > 1000 | > 1000 | > 1000 | > 1000 | > 1000 |
| CSc1nnc(-c2cc([N+](=O)[O-])cc([N+](=O)[O-])c2)o1 | 4 (≈ 1.13 µg/mL) | 8 (≈ 2.26 µg/mL) | 16 (≈ 4.52 µg/mL) | 16 (≈ 4.52 µg/mL) | 8 (≈ 2.26 µg/mL) | 8 (≈ 2.26 µg/mL) | 16 (≈ 4.52 µg/mL) | 8 (≈ 2.26 µg/mL) | 16 (≈ 4.52 µg/mL) | 32 (≈ 9.03 µg/mL) |
| Nc1cc(-c2nnc(SCc3ccc(Br)cc3)o2)cc([N+](=O)[O-])c1 | 125 (≈ 50.9 µg/mL) | 125 (≈ 50.9 µg/mL) | 125 (≈ 50.9 µg/mL) | 125 (≈ 50.9 µg/mL) | 125 (≈ 50.9 µg/mL) | 125 (≈ 50.9 µg/mL) | 125 (≈ 50.9 µg/mL) | 125 (≈ 50.9 µg/mL) | 125 (≈ 50.9 µg/mL) | 125 (≈ 50.9 µg/mL) |
| O=[N+]([O-])c1cc(-c2nnc(SC3CCCCC3)o2)cc([N+](=O)[O-])c1 | 0.03 (≈ 0.0105 µg/mL) | 0.03 (≈ 0.0105 µg/mL) | 0.03 (≈ 0.0105 µg/mL) | 32 (≈ 11.2 µg/mL) | 0.03 (≈ 0.0105 µg/mL) | 0.03 (≈ 0.0105 µg/mL) | 0.03 (≈ 0.0105 µg/mL) | 0.03 (≈ 0.0105 µg/mL) | 16 (≈ 5.61 µg/mL) | 0.03 (≈ 0.0105 µg/mL) |
| O=[N+]([O-])c1cc(O)cc(-c2nnc(SCc3ccc(Cl)c(Cl)c3)o2)c1 | > 250 | > 250 | > 250 | > 250 | > 250 | > 250 | > 250 | > 250 | > 250 | > 250 |
| CCCSc1nnc(-c2cc([N+](=O)[O-])cc([N+](=O)[O-])c2)o1 | 0.25 (≈ 0.0776 µg/mL) | 1 (≈ 0.31 µg/mL) | 4 (≈ 1.24 µg/mL) | 8 (≈ 2.48 µg/mL) | 0.5 (≈ 0.155 µg/mL) | 1 (≈ 0.31 µg/mL) | 2 (≈ 0.621 µg/mL) | 2 (≈ 0.621 µg/mL) | 8 (≈ 2.48 µg/mL) | 2 (≈ 0.621 µg/mL) |
| COc1ccc(CSc2nnc(-c3cc(N)cc([N+](=O)[O-])c3)o2)cc1 | 125 (≈ 44.8 µg/mL) | 250 (≈ 89.6 µg/mL) | 250 (≈ 89.6 µg/mL) | 250 (≈ 89.6 µg/mL) | 125 (≈ 44.8 µg/mL) | 250 (≈ 89.6 µg/mL) | 250 (≈ 89.6 µg/mL) | 250 (≈ 89.6 µg/mL) | 250 (≈ 89.6 µg/mL) | 250 (≈ 89.6 µg/mL) |
| CC(=O)Nc1cc(-c2nnc(SCc3ccccc3)o2)cc([N+](=O)[O-])c1 | > 1000 | > 1000 | > 1000 | > 1000 | > 1000 | > 1000 | > 1000 | > 1000 | > 1000 | > 1000 |
| O=[N+]([O-])c1cc(-n2nnnc2SCc2ccccc2)cc([N+](=O)[O-])c1 | 0.5 (≈ 0.179 µg/mL) | 1 (≈ 0.358 µg/mL) | 2 (≈ 0.717 µg/mL) | 8 (≈ 2.87 µg/mL) | 1 (≈ 0.358 µg/mL) | 1 (≈ 0.358 µg/mL) | 2 (≈ 0.717 µg/mL) | 2 (≈ 0.717 µg/mL) | 4 (≈ 1.43 µg/mL) | 4 (≈ 1.43 µg/mL) |
| O=[N+]([O-])c1cc(-c2nnc(SCc3ccccc3)o2)cc(C(F)(F)F)c1 | 1 (≈ 0.381 µg/mL) | 2 (≈ 0.763 µg/mL) | 4 (≈ 1.53 µg/mL) | > 250 | 1 (≈ 0.381 µg/mL) | 2 (≈ 0.763 µg/mL) | 4 (≈ 1.53 µg/mL) | 4 (≈ 1.53 µg/mL) | > 250 | 4 (≈ 1.53 µg/mL) |
| CCCCCSc1nnc(-c2cc([N+](=O)[O-])cc([N+](=O)[O-])c2)o1 | 0.03 (≈ 0.0102 µg/mL) | 0.03 (≈ 0.0102 µg/mL) | 0.03 (≈ 0.0102 µg/mL) | 32 (≈ 10.8 µg/mL) | 0.03 (≈ 0.0102 µg/mL) | 0.03 (≈ 0.0102 µg/mL) | 0.03 (≈ 0.0102 µg/mL) | 0.03 (≈ 0.0102 µg/mL) | 16 (≈ 5.41 µg/mL) | 0.03 (≈ 0.0102 µg/mL) |
| CC(=O)Oc1cc(-c2nnc(SCc3ccc(Cl)c(Cl)c3)o2)cc([N+](=O)[O-])c1 | 1000 (≈ 440 µg/mL) | 1000 (≈ 440 µg/mL) | 1000 (≈ 440 µg/mL) | 1000 (≈ 440 µg/mL) | 1000 (≈ 440 µg/mL) | 1000 (≈ 440 µg/mL) | 1000 (≈ 440 µg/mL) | 1000 (≈ 440 µg/mL) | 1000 (≈ 440 µg/mL) | 1000 (≈ 440 µg/mL) |
| NNC(=O)c1ccncc1 [ISONIAZID] | 0.5 (≈ 0.0686 µg/mL) | 4 (≈ 0.549 µg/mL) | 8 (≈ 1.1 µg/mL) | > 250 | 1 (≈ 0.137 µg/mL) | > 250 | > 250 | 4 (≈ 0.549 µg/mL) | > 250 | – |
| O=[N+]([O-])c1cc(-c2nnc(S)o2)cc([N+](=O)[O-])c1 | 62 (≈ 16.6 µg/mL) | 125 (≈ 33.5 µg/mL) | 125 (≈ 33.5 µg/mL) | 125 (≈ 33.5 µg/mL) | 62 (≈ 16.6 µg/mL) | 125 (≈ 33.5 µg/mL) | 125 (≈ 33.5 µg/mL) | 125 (≈ 33.5 µg/mL) | 62 (≈ 16.6 µg/mL) | 125 (≈ 33.5 µg/mL) |
| O=[N+]([O-])c1cc(-c2nnc(SCc3ccc(Cl)cc3Cl)o2)cc([N+](=O)[O-])c1 | 0.03 (≈ 0.0128 µg/mL) | 0.03 (≈ 0.0128 µg/mL) | 0.03 (≈ 0.0128 µg/mL) | 250 (≈ 107 µg/mL) | 0.03 (≈ 0.0128 µg/mL) | 0.03 (≈ 0.0128 µg/mL) | 0.06 (≈ 0.0256 µg/mL) | 0.03 (≈ 0.0128 µg/mL) | 250 (≈ 107 µg/mL) | 0.06 (≈ 0.0256 µg/mL) |
| CC(=O)Nc1cc(-c2nnc(SCc3ccc([N+](=O)[O-])cc3)o2)cc([N+](=O)[O-])c1 | > 500 | > 500 | > 500 | > 500 | > 500 | > 500 | > 500 | > 500 | > 500 | > 500 |
| CC(=O)Nc1cc(-c2nnc(SCc3ccc(Br)cc3)o2)cc([N+](=O)[O-])c1 | > 500 | > 500 | > 500 | > 500 | > 500 | > 500 | > 500 | > 500 | > 500 | > 500 |
| O=[N+]([O-])c1cc(-c2nnc(SCc3ccccc3)o2)cc([N+](=O)[O-])c1 | 0.5 (≈ 0.179 µg/mL) | 0.25 (≈ 0.0896 µg/mL) | 0.5 (≈ 0.179 µg/mL) | 4 (≈ 1.43 µg/mL) | 0.5 (≈ 0.179 µg/mL) | 0.25 (≈ 0.0896 µg/mL) | 0.5 (≈ 0.179 µg/mL) | 0.5 (≈ 0.179 µg/mL) | 4 (≈ 1.43 µg/mL) | 0.5 (≈ 0.179 µg/mL) |
| Nc1cc(-c2nnc(SCc3ccccc3)o2)cc([N+](=O)[O-])c1 | 250 (≈ 82.1 µg/mL) | 250 (≈ 82.1 µg/mL) | 250 (≈ 82.1 µg/mL) | 250 (≈ 82.1 µg/mL) | 250 (≈ 82.1 µg/mL) | 250 (≈ 82.1 µg/mL) | 250 (≈ 82.1 µg/mL) | 250 (≈ 82.1 µg/mL) | 250 (≈ 82.1 µg/mL) | 250 (≈ 82.1 µg/mL) |
| COc1ccc(CSc2nnc(-c3cc([N+](=O)[O-])cc(C(F)(F)F)c3)o2)cc1 | 0.5 (≈ 0.206 µg/mL) | 1 (≈ 0.411 µg/mL) | 2 (≈ 0.823 µg/mL) | > 250 | 0.5 (≈ 0.206 µg/mL) | 2 (≈ 0.823 µg/mL) | 4 (≈ 1.65 µg/mL) | 2 (≈ 0.823 µg/mL) | > 250 | 4 (≈ 1.65 µg/mL) |
| Nc1cc(-c2nnc(SCc3ccc([N+](=O)[O-])cc3)o2)cc([N+](=O)[O-])c1 | 125 (≈ 46.7 µg/mL) | 125 (≈ 46.7 µg/mL) | 125 (≈ 46.7 µg/mL) | 125 (≈ 46.7 µg/mL) | 125 (≈ 46.7 µg/mL) | 125 (≈ 46.7 µg/mL) | 125 (≈ 46.7 µg/mL) | 125 (≈ 46.7 µg/mL) | 125 (≈ 46.7 µg/mL) | 125 (≈ 46.7 µg/mL) |
